Reference: patent US4640915A, “1-azabicyclo[3.2.0]hept-2-ene-2-carboxylic acid derivatives” (Fujisawa Pharmaceutical Co., Ltd., priority 1982, dated 1987)
Read-outs that look alike come from different tables or passages of the source.

Assays:
[1] = tested on: Staphylococcus aureus 209P JC-1; assay: in vitro antimicrobial activity, two-fold agar-plate dilution method (MIC); assay type: cell-based; conditions: S. aureus 209P JC-1, HI-agar, 37° C., 20 hours
Experimental: (§1) In vitro Antimicrobial activity was determined by the two-fold agar-plate dilution method as described below.
(§2) One loopful of an overnight culture of each test strain in Trypticase-soy broth (10^6 viable cells per ml) was streaked on heart infusion agar (HI-agar) containing graded concentrations of the test compound, and the minimal inhibitory concentration (MIC) was expressed in terms of μg/ml after incubation at 37° C. for 20 hours.

[2] = tested on: Esherichia coli NIHJ JC-2; assay: as above; assay type: cell-based; conditions: Escherichia coli, NIHJJC2; E. coli NIHJ JC-2; HI-agar, 37° C., 20 hours
Experimental: as §1, §2

Escherichia coli 36 = assay: Synergistic Protecting Effect on experimental mice infection; assay type: in vivo, ICR strain-mice (infected with Escherichia coli 36); conditions: combination 1:1 by weight, subcutaneous, one hour after i.p. challenge, survival over 4 days
Experimental: (i) Combination of Compound C (Compound of the present invention) and Ceftizoxime (known antimicrobial agent, hereinafter referred to as CZX) (1:1 by weight).
(ii) Combination of Compound C (Compound of the present invention) and Cefazolin (known antimicrobial agent, hereinafter referred to as CEZ) (1:1 by weight).
4-week-old male ICR strain-mice, weighing 21.5±1.5 g.
1.1×10^5 Colony forming unit of Escherichia coli 36 suspended in 0.5 ml of 5% mucin were intraperitoneally injected.
One hour after challenge, mice were treated subcutaneously with various doses of test compound. The ED50 values were calculated by the probit method from the number of mice surviving 4 days of observation.

Ia Cephalosporinase = Ia Cephalosporinase (Enterobacter cloacae, UniProt P05364); assay: Inactivation of β-Lactamase, direct spectrophotometric assay with chromogenic cephalosporin; assay type: biochemical, Enterobacter cloacae 91; conditions: 5 min, read-out: Inactivation (%)
Sequence of Ia Cephalosporinase (P05364 21-381): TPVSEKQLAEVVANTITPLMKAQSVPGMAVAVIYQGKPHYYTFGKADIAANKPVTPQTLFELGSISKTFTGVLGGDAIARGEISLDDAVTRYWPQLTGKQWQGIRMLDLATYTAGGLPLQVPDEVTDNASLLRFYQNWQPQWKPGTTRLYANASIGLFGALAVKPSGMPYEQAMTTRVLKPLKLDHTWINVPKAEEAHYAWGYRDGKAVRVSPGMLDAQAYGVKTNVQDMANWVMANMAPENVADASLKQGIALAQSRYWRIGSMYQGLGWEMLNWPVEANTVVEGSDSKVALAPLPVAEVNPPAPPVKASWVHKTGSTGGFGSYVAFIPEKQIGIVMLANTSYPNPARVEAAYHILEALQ
Experimental: Ia Cephalosporinase derived from Enterobacter cloacae 91.
Test compound solution (100 μg/ml) was incubated for 5 minutes at 37° C. with β-lactamase before determination of enzymatic activity. β-Lactamase activity was measured by direct spectrophotometric assay using a chromogenic cephalosporin as a substrate. The extent of inactivation was expressed as percent ratio of inactivated activity.

R-TEM Penicillinase = R-TEM Penicillinase (Escherichia coli, UniProt P62593); assay: as above; assay type: biochemical, Escherichia coli 18; conditions: 100 μg/ml, 5 minutes at 37° C.
Sequence of R-TEM Penicillinase (P62593 24-286 limits assumed): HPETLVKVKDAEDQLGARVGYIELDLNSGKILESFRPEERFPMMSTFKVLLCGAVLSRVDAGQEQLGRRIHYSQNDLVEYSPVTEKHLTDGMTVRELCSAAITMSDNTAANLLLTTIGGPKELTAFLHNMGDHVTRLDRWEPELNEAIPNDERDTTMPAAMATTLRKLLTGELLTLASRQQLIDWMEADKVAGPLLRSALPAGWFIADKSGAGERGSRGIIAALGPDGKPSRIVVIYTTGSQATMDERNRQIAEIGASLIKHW

SMILES	MIC [1]	MIC [2]	ED50 values (Escherichia coli 36; (i) with CZX)	ED50 values (Escherichia coli 36; (ii) with CEZ)	Inactivation (%) (R-TEM Penicillinase)	other results
CC(C)(O)[C@@H]1C(=O)N2C(C(=O)[O-])=C(Sc3ccncc3)C[C@H]12.[Na+] [Compound A, Sodium (5R, 6R)-3-(4-pyridylthio)-6-(1-hydroxy-1-methylethyl)-7-oxo-1-azabicyclo[3.2.0]hept-2-ene-2-carboxylate]	0.1 µg/mL	0.1 µg/mL				
Cc1nnc(SC2=C(C(=O)[O-])N3C(=O)[C@@H](C(C)(C)O)[C@H]3C2)s1.[K+] [Compound B, Potassium (5R, 6R)-3-(5-methyl-1,3,4-thiadiazol-2-ylthio)-6-(1-hydroxy-1-methylethyl)-7-oxo-1-azabicyclo[3.2.0]hept-2-ene-2-carboxylate]	0.2 µg/mL	0.2 µg/mL				
CO/N=C(\C(=O)N[C@@H]1C(=O)N2C(C(=O)O)=CCS[C@H]12)c1csc(N)n1 [CZX, Ceftizoxime, reference compound]			3.42 mg/kg			
Cc1nnc(SCC2=C(C(=O)O)N3C(=O)[C@@H](NC(=O)Cn4cnnn4)[C@H]3SC2)s1 [CEZ, Cefazolin, reference compound]				20.8 mg/kg		
CC(C)(O)[C@H]1C(=O)N2C(C(=O)[O-])=C(Sc3ccncc3)C[C@H]12.[Na+] [Compound C, Sodium (5R,6S)-3-(4-pyridylthio)-6-(1-hydroxy-1-methylethyl)-7-oxo-1-azabicyclo[3.2.0]hept-2-ene-2-carboxylate]			> 112 mg/kg	> 112 mg/kg	> 95%	inhibition at 100 µg/mL (Ia Cephalosporinase; 100 μg/ml, 5 minutes at 37° C., Ia Cephalosporinase): > 95%
Cn1nnnc1SC1=C(C(=O)[O-])N2C(=O)[C@@H](C(C)(C)O)[C@H]2C1.[K+] [Compound D, Potassium (5R,6R)-3-(1-methyl-1H-tetrazol-5-ylthio)-6-(1-hydroxy-1-methylethyl)-7-oxo-1-azabicyclo[3.2.0]hept-2-ene-2-carboxylate]					> 95%	inhibition at 100 µg/mL (Ia Cephalosporinase): > 95%
